Experimental data: paper PMC5430599, “Antiplasmodial dihetarylthioethers target the coenzyme A synthesis pathway in Plasmodium falciparum erythrocytic stages” (Malaria Journal, 2017)
Converted amounts (≈) assume the structure as drawn. Like-named read-outs stand apart in the source and are kept apart here.

Assay: Aqueous thermodynamic solubility, miniaturized shake-flask method with HPLC
Assay type: physicochemical
Settings: for solubility thermodynamic / solubility: aqueous phosphate buffer, 25 °C, pH 7.4, aqueous buffer, thermodynamic from solid
Protocol: The aqueous solubility was determined using a miniaturized shake-flask-method. In brief, the compound (0.25–1.0 mg) was incubated in a Whatman Mini-Uniprep vial with aqueous phosphate buffer, pH 7.4, (300 µL) in an incubation shaker (IKA® KS 3000 ic control, Staufen, Germany) at 25 °C, 400 rpm. Presence of undissolved compound was checked at 24 and 48 h. After 24, 48, or 72 h of shaking, the filter plunger was punched into the vial and the concentration in the supernatant was determined by HPLC (AUC method, isocratic HPLC, at specific λmax as indicated in the Additional file 2). For the calibration, at least three different dilutions of the compounds from DMSO stock solutions diluted with ACN were quantified. Preparation of buffer pH 7.4: to a solution of Na2HPO4∙2 H2O (290 mg), K2HPO4 (20 mg) and NaCl (808 mg) in water (ad 100.0 mL), 12% aqueous HCl was added dropwise until the pH reached 7.4. In the case of 3a the concentration in the supernatant was below the limit of quantification. […] Further details of the solubility testing methods are described in Additional file 2, including calibration concentration ranges, composition of chromatographic eluents, and wavelength for measurement of absorbance.
Two stock solutions of each compound with a concentration of 10 mM (except for 8g: 1 mM) were prepared. Three dilutions with ACN were prepared (concentration range: 3d: 100 µM – […]
8g: 10 µM – 0.3 µM; 8k: 100 µM – 10 µM) from the stock solutions of the test compounds and measured as duplicates by HPLC (isocratic elution: solvent indicated in Additional file 2, Table, injection volume: indicated in Additional file 2, Table, flow rate: 1.000 mL/min, column temperature: 40 °C, time of detection: 8 min, detection by DAD at specific λmax as indicated in Additional file 2, Table). The area under the curve (% AUC) of the substance peak was determined and together with the respective concentration a linear calibration graph was created with Microsoft Excel (2010, Microsoft Corporation) for every compound.
Additional file 2, Table Af1: Solvents for isocratic elution, injection volumes and specific λmax […]
ID solvent injection volume [µL] λmax [nm]
Sample preparation and measurement of compound solubility
Samples of test compounds (0.25‐1.0 mg) were placed in Whatman‐Uni‐Prep® vials and aqueous phosphate buffer, pH 7.4 (300 µL, composition is indicated in Additional file 2, Table Af1) was added. The presence of undissolved compound was a requirement to determine the thermodynamic solubility. The vials were capped with the appropriate filter, […]
Additionally the vials were sealed with Parafilm M (Bemis Flexible Packaging, Neenah, WI, USA). The samples were incubated in an incubation shaker (IKA® KS 3000 ic control, Staufen, Germany) at 400 rpm and 25 °C for […]
24‐72 h. The presence of undissolved compound was checked at 24 and 48 h. Measurement of the samples was performed after 24 h, 48 h and 72 h; he filter plunger was punched into the vial and the concentration in the supernatant was determined by HPLC using the same methods as for the calibration solutions (Additional file 2, Table). All samples were measured in triplicate. By determination of the area under the curve (% AUC) of the substance and the specific linear calibration graph, the concentration of every compound in aqueous buffer solution was calculated. By comparison of the samples after 24 h and 48 h it was checked if equilibrium had been achieved after 24 h; if not, the samples were compared after 48 h and 72 h to check if equilibrium had been achieved after 48 h. In the case of 3a the concentration in the supernatant was below the limit of quantification. Therefore the lowest […]
Additional file 2, Table Af1: Composition of phosphate buffer pH 7.4 for determination of aqueous solubility. Modified according to Ph. Eur.8 […]
a Adjustment to pH 7.4 was carried out using a pH meter equipped with a glass electrode. […]
Lüddens, H., Synthesis of GABA A receptor agonists and evaluation of their α‐ […]

[1] = aqueous buffer pH 7.4, shake flask
[2] = thermodynamic solubility, aqueous buffer pH 7.4, 25 °C, equilibrium after 24 h (c) or 48 h (d) per footnote, read-out: S0, exp
[3] = thermodynamic solubility, aqueous buffer pH 7.4, 25 °C, equilibrium after 24 h (c) or 48 h (d) per footnote

c1coc(-c2nnc(Sc3ncnc4sccc34)o2)c1 [Compound 3a]
Log S0, exp [1]: <−6.00 | solubility thermodynamic [2]: < 1 µM

Cn1ccnc1Sc1ncnc2sccc12 [Compound 8c]
solubility thermodynamic (aqueous buffer pH 7.4, shake flask, read-out: Log S0, exp (converted)): 1780 µM (≈ 442 µg/mL) | solubility (pH 7.4, shake flask): > 1000 µM | S0, exp [µM] [3]: 1780 µM·days

c1csc(Sc2ncnc3sccc23)n1 [Compound 8d]
Log S0, exp [1]: −4.44 | solubility thermodynamic [2]: 36.4 µM (≈ 9.15 µg/mL)

c1coc(Sc2ncnc3sccc23)n1 [Compound 8e]
Log S0, exp [1]: −2.88 | solubility (pH 7.4, shake flask): 1330 µM (≈ 313 µg/mL) | aqueous solubility (pH 7.4, shake flask, listed as 8e (KuWei173)): > 1000 µM | S0, exp [µM] [3]: 1.33 × 10^3 c µM

Nc1nnc(Sc2ncnc3sccc23)s1 [Compound 8f]
Log S0, exp [1]: −5.36 | solubility thermodynamic [2]: 4.4 µM (≈ 1.18 µg/mL)

c1ccc2[nH]c(Sc3ncnc4sccc34)nc2c1 [Compound 8g]
Log S0, exp [1]: −6.37

c1cnc2[nH]c(Sc3ncnc4sccc34)nc2c1 [Compound 8k]
Log S0, exp [1]: −4.11 | solubility thermodynamic [2]: 77 µM (≈ 22 µg/mL)
